Experimental data taken from patent publication US5153352A, “Process for preparation of intermediates of carbocyclic nucleoside analogs” (priority 1990, dated 1992).

What was measured:
[1] = test system: Human Immunodeficiency Virus (HIV); experiment: HIV CPE inhibition assay in ATH8 cells; assay type: cell-based
Protocol: (§1) The ATH8 human T-cell line expresses high levels of the CD4 surface antigen and is quite sensitive to the cytopathogenic effect (CPE) of HIV. The cells were propagated in RPMI 1640 medium supplemented with 4mM glutamine, 15% heat-inactivated fetal bovine serum (Biocell), antibiotics (50 units of penicillin and […] of streptomycin per ml), and 50 units of recombinant-derived human interleukin-2 (ala-125; AMGen Biologicals) per ml.
The clone H9 cell line is another CD4^+ human T-cell line which is permissive for HIV replication but largely resistant to virus induced CPE. H9 cells productively infected with the HTLV IIIB strain of HIV served as the source of infectious virus. These cells were propagated in RPMI 1640 medium supplemented with glutamine and antibiotics as described above, and with 20% heat-inactivated fetal bovine serum. Freshly harvested, undiluted culture supernatant from the H9/HTLV-IIIB producer cells was used for infectious virus inoculum.
The screening of compounds for antiviral activity was performed using a modification of the CPE inhibition assay originally developed by Broder and co workers. This assay is based on the ability of uninfected ATH8 cells to grow and form a pellet at the bottom of a culture tube. Starting about 4 days after HIV addition, infected ATH8 cells begin to die and the pellet starts to break up. By day 10 a clear differential is observable in the size of the cell pellet in uninfected control wells versus infected control wells. The protective effect of test compounds can be assessed by adding them at varying concentrations to the cultured cells at the time of virus infection, then monitoring the status of the cell pellet.
(§2) ATH8 cells were used as the primary target in the HIV induced CPE inhibition assay. Cells were treated with polybrene (2 ug/ml in growth medium) for 30 minutes at 37° C., then collected by gentle centrifugation (40×g for 15 minutes at room temperature) and resuspended in clarified (8000×g for 15 minutes at 4° C.) supernate freshly harvested from 48 hours post passage H9/HTL IIIB cells. Following a 60-minute adsorption period at 37° C., the cells were dispensed into the U-bottom wells of 96-well trays (1×10^4 cells in 0.1 ml per well). An equal volume (0.1 ml) of supplemented RPMI 1640 medium containing test compound and twice the normal concentration of interleukin-2 was then added to each well. Test compounds were evaluated at seven half-log dilutions ranging from 100 uq/ml to 0.1 uq/ml. […]
(§3) Between 7 and 10 days post infection, all wells were visually monitored for the degree of CPE inhibition as reflected by cell pellet size, and aliquots were taken from selected wells for determination of cell number and viability (based on trypan blue dye exclusion).

[2] = compound cytotoxicity in ATH8 cells (HIV CPE inhibition assay); assay type: cell-based; settings: human, read-out: MTC
Protocol: as §1
as §2, with “An equal volume (0.1 ml) of supplemented RPMI 1640 medium containing test compound and twice the normal concentration of interleukin-2 was then added to each well.” left out
as §3

`OCC1CC(n2cnc3c(Cl)ncnc32)C1CO` (centres unmarked) [Example 4B, 3-(6'-chloro-9'H-purin-9'-yl)-1,2-bis(hydroxymethyl)cyclobutane] showed a VR [1] of 1.1 and an MCC [2] of 10 µg/mL.
